Test results published in PMC10910009, “Comparing ATPase activity of ATP-binding cassette subfamily C member 4, lamprey CFTR, and human CFTR using an antimony-phosphomolybdate assay” (Frontiers in Pharmacology, 2024).

T1: Lp-CFTR (Petromyzon marinus, UniProt A0A5Q0TXR8)
T1 construct: lamprey CFTR in pFastBac vector with 6xHis tag; baculovirus/Sf9 crude plasma membranes, not purified; PKA-phosphorylated
T1 sequence (A0A5Q0TXR8 1-1466): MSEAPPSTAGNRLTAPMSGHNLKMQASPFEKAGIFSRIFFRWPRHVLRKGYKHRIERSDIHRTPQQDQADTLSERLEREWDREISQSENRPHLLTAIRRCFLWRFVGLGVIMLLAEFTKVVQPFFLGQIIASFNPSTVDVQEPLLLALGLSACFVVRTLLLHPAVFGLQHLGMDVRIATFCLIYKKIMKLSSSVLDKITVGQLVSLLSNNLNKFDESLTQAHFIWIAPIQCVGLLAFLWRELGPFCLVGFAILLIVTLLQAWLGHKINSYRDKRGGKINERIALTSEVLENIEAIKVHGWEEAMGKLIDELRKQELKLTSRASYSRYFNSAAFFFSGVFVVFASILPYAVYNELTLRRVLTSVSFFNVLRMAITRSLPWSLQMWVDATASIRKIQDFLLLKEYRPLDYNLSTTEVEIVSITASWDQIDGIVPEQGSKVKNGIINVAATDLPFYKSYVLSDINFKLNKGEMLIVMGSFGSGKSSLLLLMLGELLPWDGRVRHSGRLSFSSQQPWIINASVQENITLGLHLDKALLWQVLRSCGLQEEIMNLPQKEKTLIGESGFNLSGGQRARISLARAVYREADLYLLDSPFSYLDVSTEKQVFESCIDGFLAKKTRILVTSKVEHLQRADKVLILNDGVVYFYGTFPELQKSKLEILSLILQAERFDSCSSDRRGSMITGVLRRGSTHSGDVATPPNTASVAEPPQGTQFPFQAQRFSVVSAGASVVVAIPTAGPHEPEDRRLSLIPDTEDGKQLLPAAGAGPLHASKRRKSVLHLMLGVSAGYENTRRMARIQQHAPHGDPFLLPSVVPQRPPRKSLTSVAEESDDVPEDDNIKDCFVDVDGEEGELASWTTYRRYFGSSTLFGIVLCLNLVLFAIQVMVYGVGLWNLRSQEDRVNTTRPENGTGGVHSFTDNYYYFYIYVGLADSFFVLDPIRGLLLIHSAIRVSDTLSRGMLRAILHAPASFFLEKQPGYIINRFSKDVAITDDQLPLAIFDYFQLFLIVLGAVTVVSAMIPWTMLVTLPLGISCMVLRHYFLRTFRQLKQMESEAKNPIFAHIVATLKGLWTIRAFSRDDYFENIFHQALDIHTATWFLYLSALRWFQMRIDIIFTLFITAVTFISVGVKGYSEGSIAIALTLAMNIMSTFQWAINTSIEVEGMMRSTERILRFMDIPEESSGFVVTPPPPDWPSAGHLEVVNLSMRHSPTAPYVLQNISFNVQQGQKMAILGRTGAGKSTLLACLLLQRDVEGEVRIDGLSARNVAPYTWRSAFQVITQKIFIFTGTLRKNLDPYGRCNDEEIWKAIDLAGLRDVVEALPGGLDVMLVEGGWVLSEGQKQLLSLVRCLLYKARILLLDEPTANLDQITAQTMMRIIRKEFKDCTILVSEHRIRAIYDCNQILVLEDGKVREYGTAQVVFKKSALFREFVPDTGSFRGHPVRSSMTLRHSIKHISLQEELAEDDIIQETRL

B1: hABCC4 (Homo sapiens) (protein)
chain: MLPVYQEVKPNPLQDANLCSRVFFWWLNPLFKIGHKRRLEEDDMYSVLPEDRSQHLGEELQGFWDKEVLRAENDAQKPSLTRAIIKCYWKSYLVLGIFTLIEESAKVIQPIFLGKIINYFENYDPMDSVALNTAYAYATVLTFCTLILAILHHLYFYHVQCAGMRLRVAMCHMIYRKALRLSNMAMGKTTTGQIVNLLSNDVNKFDQVTVFLHFLWAGPLQAIAVTALLWMEIGISCLAGMAVLIILLPLQSCFGKLFSSLRSKTATFTDARIRTMNEVITGIRIIKMYAWEKSFSNLITNLRKKEISKILRSSCLRGMNLASFFSASKIIVFVTFTTYVLLGSVITASRVFVAVTLYGAVRLTVTLFFPSAIERVSEAIVSIRRIQTFLLLDEISQRNRQLPSDGKKMVHVQDFTAFWDKASETPTLQGLSFTVRPGELLAVVGPVGAGKSSLLSAVLGELAPSHGLVSVHGRIAYVSQQPWVFSGTLRSNILFGKKYEKERYEKVIKACALKKDLQLLEDGDLTVIGDRGTTLSGGQKARVNLARAVYQDADIYLLDDPLSAVDAEVSRHLFELCICQILHEKITILVTHQLQYLKAASQILILKDGKMVQKGTYTEFLKSGIDFGSLLKKDNEESEQPPVPGTPTLRNRTFSESSVWSQQSSRPSLKDGALESQDTENVPVTLSEENRSEGKVGFQAYKNYFRAGAHWIVFIFLILLNTAAQVAYVLQDWWLSYWANKQSMLNVTVNGGGNVTEKLDLNWYLGIYSGLTVATVLFGIARSLLVFYVLVNSSQTLHNKMFESILKAPVLFFDRNPIGRILNRFSKDIGHLDDLLPLTFLDFIQTLLQVVGVVSVAVAVIPWIAIPLVPLGIIFIFLRRYFLETSRDVKRLESTTRSPVFSHLSSSLQGLWTIRAYKAEERCQELFDAHQDLHSEAWFLFLTTSRWFAVRLDAICAMFVIIVAFGSLILAKTLDAGQVGLALSYALTLMGMFQWCVRQSAEVENMMISVERVIEYTDLEKEAPWEYQKRPPPAWPHEGVIIFDNVNFMYSPGGPLVLKHLTALIKSQEKVGIVGRTGAGKSSLISALFRLSEPEGKIWIDKILTTEIGLHDLRKKMSIIPQEPVLFTGTMRKNLDPFNEHTDEELWNALQEVQLKETIEDLPGKMDTELAESGSNFSVGQRQLVCLARAILRKNQILIIDEATANVDPRTDELIQKKIREKFAHCTVLTIAHRLNTIIDSDKIMVLDSGRLKEYDEPYVLLQNKESLFYKMVQQLGKAEAAALTETAKQVYFKRNYPHIGHTDHMVTNTSNGQPSTLTIFETAL
notes: human ABCC4 in pFastBac vector with 6xHis tag; baculovirus/Sf9 crude plasma membranes, not purified

What was measured:
[1] = molecular target: T2, hCFTR (Homo sapiens, UniProt P13569); settings: Sf9 crude membranes, control membranes subtracted; 1 mM Na2ATP, 5 mM MgCl2, PKA, pH 7.4, 30 °C, 1 h
T2 construct: gene CFTR

[2] = molecular target: T1, Lp-CFTR; experiment: antimony-phosphomolybdate Pi release (ATPase); assay type: biochemical; settings: Sf9 crude membranes, control membranes subtracted; 1 mM Na2ATP, 5 mM MgCl2, PKA, pH 7.4, 30 °C, 1 h
[3] = substrate: Nc1ncnc2c1ncn2[C@@H]1O[C@H](COP(=O)(O)OP(=O)(O)OP(=O)(O)O)[C@@H](O)[C@H]1O; experiment: antimony-phosphomolybdate Pi release (ATPase), Michaelis-Menten fit; assay type: biochemical, Homo sapiens; settings: printed as Kd but from Michaelis-Menten fit of ATPase activity, Sf9 crude membranes, control membranes subtracted, 5 mM MgCl2, pH 7.4, 37 °C, 20 min, no PKA, no transport substrate

T2 sequence (P13569 whole entry): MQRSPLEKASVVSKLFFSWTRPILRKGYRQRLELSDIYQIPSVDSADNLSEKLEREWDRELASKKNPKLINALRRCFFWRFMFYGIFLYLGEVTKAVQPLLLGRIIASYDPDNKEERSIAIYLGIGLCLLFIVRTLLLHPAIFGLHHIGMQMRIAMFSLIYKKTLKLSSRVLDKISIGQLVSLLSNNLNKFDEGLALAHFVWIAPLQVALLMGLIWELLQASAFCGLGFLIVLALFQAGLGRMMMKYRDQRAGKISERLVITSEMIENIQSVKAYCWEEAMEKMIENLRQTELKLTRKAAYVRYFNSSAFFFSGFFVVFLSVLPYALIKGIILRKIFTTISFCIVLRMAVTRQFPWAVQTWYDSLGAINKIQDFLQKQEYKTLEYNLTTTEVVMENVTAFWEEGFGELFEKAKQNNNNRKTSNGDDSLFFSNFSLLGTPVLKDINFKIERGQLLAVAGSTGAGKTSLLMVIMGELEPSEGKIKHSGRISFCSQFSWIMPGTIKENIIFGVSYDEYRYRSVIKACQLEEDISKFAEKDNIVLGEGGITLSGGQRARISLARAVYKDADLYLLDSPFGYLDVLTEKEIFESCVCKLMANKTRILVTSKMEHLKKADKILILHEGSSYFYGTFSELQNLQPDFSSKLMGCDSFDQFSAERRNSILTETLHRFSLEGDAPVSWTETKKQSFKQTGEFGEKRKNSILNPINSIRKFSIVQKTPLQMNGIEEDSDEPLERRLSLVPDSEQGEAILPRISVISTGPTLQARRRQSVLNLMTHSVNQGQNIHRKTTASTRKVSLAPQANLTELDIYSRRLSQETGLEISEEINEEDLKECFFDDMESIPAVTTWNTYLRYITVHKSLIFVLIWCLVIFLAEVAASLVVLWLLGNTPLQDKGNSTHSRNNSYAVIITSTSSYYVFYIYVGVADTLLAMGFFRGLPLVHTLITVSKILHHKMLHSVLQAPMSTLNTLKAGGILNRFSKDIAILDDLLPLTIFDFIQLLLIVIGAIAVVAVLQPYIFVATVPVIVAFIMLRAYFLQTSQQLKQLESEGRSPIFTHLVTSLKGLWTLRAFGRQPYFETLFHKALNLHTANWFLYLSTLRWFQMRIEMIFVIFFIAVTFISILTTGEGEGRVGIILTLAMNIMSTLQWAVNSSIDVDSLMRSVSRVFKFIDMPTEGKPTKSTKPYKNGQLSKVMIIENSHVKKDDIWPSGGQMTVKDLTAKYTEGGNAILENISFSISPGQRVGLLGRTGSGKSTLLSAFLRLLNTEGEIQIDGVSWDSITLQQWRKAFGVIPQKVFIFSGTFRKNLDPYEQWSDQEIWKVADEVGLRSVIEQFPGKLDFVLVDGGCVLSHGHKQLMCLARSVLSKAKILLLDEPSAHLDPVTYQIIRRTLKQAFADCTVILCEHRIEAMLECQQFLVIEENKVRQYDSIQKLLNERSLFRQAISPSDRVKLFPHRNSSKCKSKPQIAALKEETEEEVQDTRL

Molecule	antimony-phosphomolybdate Pi release (ATPase) [1]	antimony-phosphomolybdate Pi release (ATPase) [2]	Km [3]
Nc1ncnc2c1ncn2[C@@H]1O[C@H](COP(=O)(O)OP(=O)(O)OP(=O)(O)O)[C@@H](O)[C@H]1O [ATP]	hCFTR exhibited higher ATPase activity in high PKA compared to low PKA conditions	Lp-CFTR exhibited higher ATPase activity in high PKA compared to low PKA conditions	
B1			550 ± 280 µM
